Series [1] in a line: stability (solid and aqueous solution). It is filed as physicochemical.
Series [2] is described as follows: aqueous solubility. The class given is physicochemical.
The nature of series [3]: hygroscopicity / solvate formation on purification. The class given is physicochemical.
A short description of series [4]: oral absorption profile. It is filed as in vivo. The conditions noted are these: compared with the free base.

SMILES strings stand for the structures.

On to `COc1cc(N(C)CCOc2ccc(CC3SC(=O)NC3=O)cc2)ncn1` (stereo not drawn) [Compound I, 5-(4-{2-[(6-methoxypyrimydin-4-yl)-methyl-amino]-ethoxyl}-benzyl)-thiazolidin-2,4-dione], for which the stability result in series [1] is given as “problems of stability”. Further, in series [2] (aqueous), the “solubility (in words)” value is “problems of stability and solubility”.
For `COc1cc(N(C)CCOc2ccc(CC3SC(=O)NC3=O)cc2)ncn1.[Na]` (stereo not drawn) [Sodium Salt, sodium salt of 5-(4-{2-[(6-methoxy-pyrimydin-4-yl)-methyl-amino]-ethoxy}-benzyl)-thiazolidin-2,4-dione], the stability entry in series [1] is recorded as “good stability”. Moreover, the aqueous solubility result in series [2] (water) is “higher than 1 mg/ml”. Also, in series [3], the “hygroscopicity or formation of solvates” value is “without problems of hygroscopicity or formation of solvates”. The oral absorption profile result in series [4] is “better oral absorption profile than the free base”.

Source of the values: patent publication US20040106632A1, “Salt of thiazolidinedione and its polymorphs as antidiabetic agents and method for obtaining them” (priority 2001, published 2004).
